In patent US10800804B2, “Hybrid galactoside inhibitor of galectins” (GALECTO BIOTECH AB, priority 2014, dated 2020) one finds Kd data, which are given here for twelve compounds.

The structures appear in SMILES notation.

One assay concerns the target Galectin-1 (Homo sapiens (Human), UniProt P09382). The assay can be described thus: Fluorescence anisotropy assay, compound as inhibitor of galectin / fluorescein tagged saccharide probe interaction. Type of assay: binding. As for the experimental part: (§1) 100 nM albumin was included as a carrier to prevent protein loss at such low concentration of galectin.
For a further assay, the target named is Galectin-3 (Homo sapiens (Human), UniProt P17931). The assay is described as follows: Fluorescence anisotropy assay with high-affinity probe (SY), 50 nM galectin-3, 100 nM albumin. Type of assay: binding. As for the experimental part:
as §1

The target in the next assay is galectins. The note with it: all galectins; reviewed by Leffler, 2001 and Leffler et al., 2004; cited from earlier work.

Galectin-1, sequence (P09382 whole entry): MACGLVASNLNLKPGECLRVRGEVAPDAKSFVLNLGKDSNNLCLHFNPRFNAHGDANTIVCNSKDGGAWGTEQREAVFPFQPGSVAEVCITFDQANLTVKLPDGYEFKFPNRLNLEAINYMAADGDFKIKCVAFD
Galectin-3, sequence (P17931 whole entry): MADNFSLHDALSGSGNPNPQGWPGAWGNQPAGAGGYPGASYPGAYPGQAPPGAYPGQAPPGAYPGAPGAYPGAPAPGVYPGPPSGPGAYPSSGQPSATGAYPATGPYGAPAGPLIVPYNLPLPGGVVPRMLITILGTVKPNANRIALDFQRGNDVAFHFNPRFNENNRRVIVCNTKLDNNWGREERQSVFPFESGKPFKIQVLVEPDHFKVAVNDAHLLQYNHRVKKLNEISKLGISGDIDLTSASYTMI

Consider `OCC1O[C@@H](SC2O[C@H](CO)C(O)C(n3cc(-c4ccc(F)c(F)c4)nn3)[C@H]2O)C(O)[C@@H](n2cc(-c3ccc(F)c(F)c3)nn2)[C@H]1O` (stereo partly drawn) [Example 3a, 3,3′-dideoxy-3,3′-di-[4-(3,4-difluorophenyl)-1H-1,2,3-triazol-1-yl]-1,1′-sulfanediyl-di-β-D-galactopyranoside], for which the equilibrium dissociation constant (Kd) on Galectin-1 (Experimental Section 2) came out at 0.078 µM; at Galectin-3 (Experimental Section 2), 0.003 µM.
The corresponding values for `OCC1O[C@@H](SC2O[C@H](CO)C(O)C(n3cc(-c4cc(F)c(F)c(F)c4)nn3)[C@H]2O)C(O)[C@@H](n2cc(-c3cc(F)c(F)c(F)c3)nn2)[C@H]1O` (stereo partly drawn) [Example 3b, 3,3′-bisdeoxy-3,3′-bis-[4-(3,4,5-trifluorophenyl)-1H-1,2,3-triazol-1-yl]-1,1′-sulfanediyl-di-β-D-galactopyranoside] are 0.079 µM and 0.001 µM.
The corresponding values for `OCC1O[C@@H](SC2O[C@H](CO)C(O)C(n3cc(-c4cc(F)cc(F)c4)nn3)[C@H]2O)C(O)[C@@H](n2cc(-c3cc(F)cc(F)c3)nn2)[C@H]1O` (stereo partly drawn) [Example 3c, 3,3′-bisdeoxy-3,3′-bis-[4-(3,5-difluorophenyl)-1H-1,2,3-triazol-1-yl]-1,1′-sulfanediyldi-β-D-galactopyranoside] are 0.11 µM and 0.002 µM.
As to `O=c1oc2ccc(F)c(F)c2cc1COC1C(O)[C@@H](CO)OC(S[C@@H]2OC(CO)[C@H](O)[C@H](n3cc(-c4cccc(F)c4)nn3)C2O)[C@@H]1O` (stereo partly drawn) [Example S8a, 3′-Deoxy-3-O-[(5,6-difluoro-2-oxo-3-chromenyl)methyl]-3′-[4-(3-fluorophenyl)-1H-1,2,3-triazol-1-yl]-1,1′-sulfanediyl-di-β-D-galactopyranoside], the values for the Kd at Galectin-1 (Experimental Section 1) and at Galectin-3 (Experimental Section 1) were 0.32 µM and 0.028 µM, respectively.
For `O=c1oc2ccc(F)c(F)c2cc1COC1C(O)[C@@H](CO)OC(S[C@@H]2OC(CO)[C@H](O)[C@H](n3cc(-c4cc(F)c(F)c(F)c4)nn3)C2O)[C@@H]1O` (stereo partly drawn) [Example S8b, 3′-Deoxy-3-O-[(5,6-difluoro-2-oxo-3-chromenyl)methyl]-3′-[4-(3,4,5-trifluorophenyl)-1H-1,2,3-triazol-1-yl]-1,1′-sulfanediyl-di-β-D-galactopyranoside] the same measures were 0.48 µM and 0.002 µM.
The corresponding values for `CCCCNC(=O)c1cn([C@@H]2C(O)[C@H](SC3O[C@H](CO)C(O)C(OCc4cc5c(F)c(F)ccc5oc4=O)[C@H]3O)OC(CO)[C@@H]2O)nn1` (stereo partly drawn) [Example S8c, 3′-{4-[(Butylamino)carbonyl]-1H-1,2,3-triazol-1-yl}-3′deoxy-3-O-[(5,6-difluoro-2-oxo-3-chromenyl)methyl]-1,1′-sulfanediyl-di-β-D-galactopyranoside] are 1.2 µM and 0.072 µM.
For `CCCCNC(=O)c1cn(C2C(O)[C@@H](CO)OC(S[C@@H]3OC(CO)[C@H](O)[C@H](n4cc(-c5cc(F)c(F)c(F)c5)nn4)C3O)[C@@H]2O)nn1` (stereo partly drawn) [Example S11, 3-{4-[(Butylamino)carbonyl]-1H-1,2,3-triazol-1-yl}-3,3′-dideoxy-3′-[4-(3,4,5-trifluorophenyl)-1H-1,2,3-triazol-1-yl]-1,1′-sulfanediyl-di-β-D-galactopyranoside] the same measures were 0.077 µM and 0.001 µM.
Regarding `COc1c(F)c(F)c(C(=O)NC2C(O)C(CO)OC(SC3OC(CO)C(O)C(n4cc(-c5cccc(F)c5)nn4)C3O)C2O)c(F)c1F` [Example S16, 3,3′-Dideoxy-3′-[4-(3-fluorophenyl)-1H-1,2,3-triazol-1-yl]-3-(4-methoxy-2,3,5,6-tetrafluoro-benzamido)-1′-sulfanediyl-di-β-D-galactopyranoside], the results for the dissociation constant Kd on Galectin-1 (Experimental Section 1) and at Galectin-3 (Experimental Section 1) were 0.09 µM and 0.007 µM, respectively.
For `O=C(NC1C(O)C(CO)OC(SC2OC(CO)C(O)C(n3cc(-c4cccc(F)c4)nn3)C2O)C1O)c1c2ccccc2cc2ccccc12` [Example S20a, 3-(9-anthracenecarboxamide)-3,3′-Dideoxy-3-[4-(3-fluorophenyl)-1H-1,2,3-triazol-1-yl]-1,1′-sulfanediyl-di-β-D-galactopyranoside] the same measures were 0.38 µM and 0.064 µM.
The corresponding values for `O=C(NC1C(O)C(CO)OC(SC2OC(CO)C(O)C(n3cc(-c4cccc(F)c4)nn3)C2O)C1O)c1ccc2cc3ccccc3cc2c1` [Example S20b, 3-(2-anthracenecarboxamide)-3,3′-Dideoxy-3-[4-(3-fluorophenyl)-1H-1,2,3-triazol-1-yl]-1,1′-sulfanediyl-di-β-D-galactopyranoside] are 0.49 µM and 0.14 µM.
Consider `OCC1O[C@@H](SC2O[C@H](CO)C(O)C(n3cc(-c4ccccc4)nn3)[C@H]2O)C(O)[C@@H](n2cc(-c3cc(F)c(F)c(F)c3)nn2)[C@H]1O` (stereo partly drawn) [Example S21, 3,3′-Dideoxy-3-[4-(3,4,5-trifluorophenyl)-1H-1,2,3-triazol-1-yl]-3′-[4-phenyl-1H-1,2,3-triazol-1-yl]-1,1′-sulfanediyl-di-β-D-galactopyranoside], for which the Kd came out at 0.066 µM at Galectin-1 (Experimental Section 1) and 0.003 µM at Galectin-3 (Experimental Section 1).
On to `OC[C@H]1O[C@@H](O[C@H]2[C@H](O)[C@@H](O)C(O)O[C@@H]2CO)[C@H](O)[C@@H](O)[C@H]1O` (some centres unmarked) [lactose], for which the Kd on galectins was 500 to 1000 µM.
